Measured values from patent publication US7109150B2, “Trifluoromethylpyrrolecarboxamides and trifluoromethylpyrrolethioamides as fungicides” (Syngenta Crop Protection, Inc., priority 1999, dated 2006).

melting point: 139 to 141 °C
SMILES: Cn1cc(C(=O)Nc2ccccc2-c2ccc(Cl)s2)c(C(F)(F)F)c1 [Example 3, 1-Methyl-4-trifluoromethyl-1H-pyrrole-3-carboxylic acid [2′-(5′-chloro-thienyl)-2-benzamide]]
